In patent US20250122183A1 (Pfizer Inc., priority 2023, published 2025):
Where two headings read alike, the source gives them in different places.

Legend:
Type in all cases: biochemical
KAT8 Full length enzyme = KAT8 Full length enzyme (Homo sapiens (Human), UniProt Q9H7Z6); experiment: KAT8 assay (SAMDI-MS acetylation of H3 1-21 peptide); details: replicate number in parentheses
KAT6A Full length enzyme = KAT6A Full length enzyme (Homo sapiens (Human), UniProt Q92794); experiment: KAT6A assay (SAMDI-MS acetylation of H3 1-21 peptide); details: replicate number in parentheses
[1] = biological target: KAT7+BRPF1+EAF6+ING5 4 protein complex (Homo sapiens (Human), UniProt O95251); experiment: KAT7 BRPF1 assay (SAMDI-MS acetylation of H3 1-21 peptide); details: Morrison equation fit; replicate number in parentheses
KAT5 Full length enzyme = KAT5 Full length enzyme (Homo sapiens (Human), UniProt Q92993); experiment: KAT5 assay (SAMDI-MS acetylation of H4 1-21 peptide); details: replicate number in parentheses
[2] = biological target: KAT7+JADE1+EAF6+ING5 4 protein complex (Homo sapiens (Human), UniProt O95251); experiment: KAT7 JADE1 assay (SAMDI-MS acetylation of H3 1-21 peptide); details: replicate number in parentheses
[3] = biological target: KAT7+BRPF2+EAF6+ING5 4 protein complex (Homo sapiens (Human), UniProt O95251); experiment: KAT7 BRPF2 assay (SAMDI-MS acetylation of H3 1-21 peptide); details: replicate number in parentheses
[4] = Morrison equation fit, read-out: KAT8 Ki (nM) (replicate number)
[5] = Morrison equation fit, read-out: KAT6A Ki (nM) (replicate number)
[6] = Morrison equation fit, read-out: KAT5 Ki (nM) (replicate number)
[7] = Morrison equation fit, read-out: KAT7 JADE1 Ki (nM) (replicate number)
[8] = Morrison equation fit, read-out: KAT7 BRPF2 Ki (nM) (replicate number)
[9] = read-out: KAT8 Ki (nM) (replicate)
[10] = read-out: KAT6A Ki (nM) (replicate)
[11] = read-out: KAT7 BRPF2 Ki (nM) (replicate)
[12] = read-out: KAT5 Ki (nM) (replicate)
[13] = read-out: KAT7 JADE1 Ki (nM) (replicate)

Chain of KAT5 Full length enzyme (Q92993 whole entry): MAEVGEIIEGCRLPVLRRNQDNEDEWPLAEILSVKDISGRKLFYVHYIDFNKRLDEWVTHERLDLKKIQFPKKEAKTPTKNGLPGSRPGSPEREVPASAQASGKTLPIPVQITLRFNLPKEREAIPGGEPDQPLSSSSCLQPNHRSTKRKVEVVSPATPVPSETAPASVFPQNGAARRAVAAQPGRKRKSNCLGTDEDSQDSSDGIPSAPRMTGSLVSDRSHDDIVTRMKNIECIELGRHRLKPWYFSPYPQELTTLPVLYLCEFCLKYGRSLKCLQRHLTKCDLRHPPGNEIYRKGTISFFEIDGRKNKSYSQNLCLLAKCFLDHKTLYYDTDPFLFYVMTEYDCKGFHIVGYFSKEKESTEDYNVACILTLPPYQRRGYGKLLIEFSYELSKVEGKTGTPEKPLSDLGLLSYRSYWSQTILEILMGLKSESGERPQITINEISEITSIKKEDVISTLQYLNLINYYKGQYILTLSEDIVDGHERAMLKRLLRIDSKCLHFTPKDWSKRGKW
Chain of KAT8 Full length enzyme (Q9H7Z6 whole entry): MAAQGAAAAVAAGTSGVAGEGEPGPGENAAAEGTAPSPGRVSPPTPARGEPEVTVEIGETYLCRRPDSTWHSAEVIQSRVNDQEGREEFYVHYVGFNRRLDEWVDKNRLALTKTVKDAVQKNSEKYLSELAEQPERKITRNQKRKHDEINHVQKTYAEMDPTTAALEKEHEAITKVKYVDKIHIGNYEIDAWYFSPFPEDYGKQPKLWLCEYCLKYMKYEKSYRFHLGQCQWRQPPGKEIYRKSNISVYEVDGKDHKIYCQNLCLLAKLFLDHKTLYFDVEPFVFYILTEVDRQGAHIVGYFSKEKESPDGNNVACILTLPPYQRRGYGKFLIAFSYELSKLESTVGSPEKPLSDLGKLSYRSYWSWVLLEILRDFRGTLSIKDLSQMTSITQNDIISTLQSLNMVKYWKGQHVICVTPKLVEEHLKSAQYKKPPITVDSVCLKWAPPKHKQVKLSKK
Chain of KAT6A Full length enzyme (Q92794 other isoform, or with tags, fused parts or gaps): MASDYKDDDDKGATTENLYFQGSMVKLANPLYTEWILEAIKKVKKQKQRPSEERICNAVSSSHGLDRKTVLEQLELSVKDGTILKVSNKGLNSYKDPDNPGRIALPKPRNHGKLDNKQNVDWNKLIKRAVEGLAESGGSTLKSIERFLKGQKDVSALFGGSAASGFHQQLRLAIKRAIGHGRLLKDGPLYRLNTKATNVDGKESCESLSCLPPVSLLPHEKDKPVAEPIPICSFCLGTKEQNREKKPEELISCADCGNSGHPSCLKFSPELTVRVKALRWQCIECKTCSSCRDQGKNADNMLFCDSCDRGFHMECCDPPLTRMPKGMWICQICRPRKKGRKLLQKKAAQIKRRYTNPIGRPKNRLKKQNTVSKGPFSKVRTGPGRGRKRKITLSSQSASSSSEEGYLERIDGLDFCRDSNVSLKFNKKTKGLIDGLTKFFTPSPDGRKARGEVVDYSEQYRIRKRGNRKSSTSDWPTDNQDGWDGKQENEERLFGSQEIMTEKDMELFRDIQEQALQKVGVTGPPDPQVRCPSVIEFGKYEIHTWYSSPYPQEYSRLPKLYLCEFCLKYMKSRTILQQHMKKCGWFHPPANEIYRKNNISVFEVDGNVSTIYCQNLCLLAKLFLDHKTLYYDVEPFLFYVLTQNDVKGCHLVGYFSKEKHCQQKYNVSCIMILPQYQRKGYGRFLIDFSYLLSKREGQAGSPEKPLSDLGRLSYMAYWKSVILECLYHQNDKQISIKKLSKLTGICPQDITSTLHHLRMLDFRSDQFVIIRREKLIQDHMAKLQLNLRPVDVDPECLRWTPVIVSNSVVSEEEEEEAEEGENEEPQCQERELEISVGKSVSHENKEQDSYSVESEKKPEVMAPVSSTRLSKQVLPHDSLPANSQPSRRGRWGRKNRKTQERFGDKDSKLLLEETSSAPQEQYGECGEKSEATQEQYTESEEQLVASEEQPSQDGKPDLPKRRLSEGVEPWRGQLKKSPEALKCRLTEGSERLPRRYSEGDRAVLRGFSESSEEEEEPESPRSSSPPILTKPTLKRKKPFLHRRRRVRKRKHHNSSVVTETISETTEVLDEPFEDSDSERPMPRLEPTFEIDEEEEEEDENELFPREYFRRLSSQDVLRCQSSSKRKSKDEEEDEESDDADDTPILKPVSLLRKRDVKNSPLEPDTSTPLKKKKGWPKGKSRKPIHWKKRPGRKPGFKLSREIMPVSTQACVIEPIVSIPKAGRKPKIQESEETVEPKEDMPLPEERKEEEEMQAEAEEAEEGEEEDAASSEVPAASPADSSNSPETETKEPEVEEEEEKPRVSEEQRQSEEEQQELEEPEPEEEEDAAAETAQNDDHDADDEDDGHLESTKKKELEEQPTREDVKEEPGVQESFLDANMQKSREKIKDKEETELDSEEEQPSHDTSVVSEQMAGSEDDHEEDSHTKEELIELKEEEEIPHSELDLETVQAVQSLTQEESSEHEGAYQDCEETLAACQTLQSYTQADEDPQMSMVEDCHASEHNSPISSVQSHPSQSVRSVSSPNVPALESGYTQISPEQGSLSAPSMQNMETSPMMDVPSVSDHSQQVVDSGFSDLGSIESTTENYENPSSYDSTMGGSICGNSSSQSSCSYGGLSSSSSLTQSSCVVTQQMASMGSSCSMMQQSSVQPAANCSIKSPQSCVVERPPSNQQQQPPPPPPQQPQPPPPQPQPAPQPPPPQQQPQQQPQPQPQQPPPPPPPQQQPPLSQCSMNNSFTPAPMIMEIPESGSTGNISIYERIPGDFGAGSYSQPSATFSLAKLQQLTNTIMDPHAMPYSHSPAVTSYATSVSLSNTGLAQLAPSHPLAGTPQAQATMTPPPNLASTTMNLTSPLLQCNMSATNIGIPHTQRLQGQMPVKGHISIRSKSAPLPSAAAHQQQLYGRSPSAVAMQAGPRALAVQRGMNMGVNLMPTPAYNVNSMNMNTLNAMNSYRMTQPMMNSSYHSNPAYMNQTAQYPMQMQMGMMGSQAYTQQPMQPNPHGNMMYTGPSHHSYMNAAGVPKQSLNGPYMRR

COc1cc2c(NS(=O)(=O)c3c(OC)cc(C4CCCN4C)cc3OC)noc2cc1Nc1cc(C2CC2)n[nH]1 (racemic) [Example 154, N-{6-[(3-cyclopropyl-1H-pyrazol-5-yl)amino]-5-methoxy-1,2-benzoxazol-3-yl}-2,6-dimethoxy-4-(1-methylpyrrolidin-2-yl)benzene-1-sulfonamide]
Ki (KAT8 Full length enzyme; [4]): 2140 nM | Ki (KAT6A Full length enzyme; [5]): 2 nM | Ki [1]: 7.8 nM | Ki (KAT5 Full length enzyme; [6]): 88.3 nM | Ki [2, 7]: 15.3 nM

COc1cc2c(NS(=O)(=O)c3c(OC)cc(C4CCCCN4C)cc3OC)noc2cc1Nc1cc(C2CC2)n[nH]1 (racemic) [Example 155, N-{6-[(3-cyclopropyl-1 H-pyrazol-5-yl)amino]-5-methoxy-1,2-benzoxazol-3-yl}-2,6-dimethoxy-4-(1-methylpiperidin-2-yl)benzene-1-sulfonamide]
Ki (KAT6A Full length enzyme; [5]): 2.9 nM | Ki [1]: 14.9 nM | Ki [2, 7]: 24.3 nM

COc1cc2c(NS(=O)(=O)c3c(OC)cccc3OC3CCC3)noc2cc1Nc1cc[nH]n1 [Example 33, 2-(cyclobutyloxy)-6-methoxy-N-{5-methoxy-6-[(1H-pyrazol-3-yl)amino]-1,2-benzoxazol-3-yl}benzene-1-sulfonamide]
Ki (KAT8 Full length enzyme; [4]): 733 nM | Ki [1]: 15.4 nM | Ki (KAT5 Full length enzyme; [6]): 988 nM | Ki [2, 7]: 142 nM

COc1cc2c(NS(=O)(=O)c3c(OC)cccc3OC3CC3)noc2cc1Nc1cc[nH]n1 [Example 34, 2-(cyclopropyloxy)-6-methoxy-N-{5-methoxy-6-[(1H-pyrazol-3-yl)amino]-1,2-benzoxazol-3-yl}benzene-1-sulfonamide]
Ki (KAT8 Full length enzyme; [4]): 1240 nM | Ki (KAT6A Full length enzyme; [5]): 0.4 nM | Ki [1]: 11.2 nM | Ki (KAT5 Full length enzyme; [6]): 365 nM | Ki [2, 7]: 51.8 nM

COc1cc2c(NS(=O)(=O)c3c(OC)cccc3OC)noc2cc1Nc1c(C#N)c(C)nn1C [Example 46, N-{6-[(4-cyano-1,3-dimethyl-1H-pyrazol-5-yl)amino]-5-methoxy-1,2-benzoxazol-3-yl}-2,6-dimethoxybenzene-1-sulfonamide]
Ki (KAT6A Full length enzyme; [5]): > 377 nM | Ki [1]: > 16100 nM | Ki [2, 7]: > 9770 nM

COc1cc2c(NS(=O)(=O)c3c(OC)cccc3OC)noc2cc1Nc1cc(C)nn1CCO [Example 59, N-(6-{[1-(2-hydroxyethyl)-3-methyl-1H-pyrazol-5-yl]amino}-5-methoxy-1,2-benzoxazol-3-yl)-2,6-dimethoxybenzene-1-sulfonamide]
Ki [1]: 580 nM | Ki [2, 7]: > 2870 nM

COc1cccc(OC)c1S(=O)(=O)Nc1noc2cc(Nc3cc(C4CC4)n[nH]3)c(F)c(OC)c12 [Example 71, N-{6-[(3-cyclopropyl-1H-pyrazol-5-yl)amino]-5-fluoro-4-methoxy-1,2-benzoxazol-3-yl}-2,6-dimethoxybenzene-1-sulfonamide]
Ki (KAT8 Full length enzyme; [4]): 4050 nM | Ki (KAT6A Full length enzyme; [5]): 2.6 nM | Ki [1]: 2.2 nM | Ki (KAT5 Full length enzyme; [6]): 591 nM | Ki [2, 7]: 20.9 nM

CCc1cc(Nc2cc3onc(NS(=O)(=O)c4c(OC)cccc4OC)c3c(OC)c2F)[nH]n1 [Example 72, N-{6-[(3-ethyl-1H-pyrazol-5-yl)amino]-5-fluoro-4-methoxy-1,2-benzoxazol-3-yl}-2,6-dimethoxybenzene-1-sulfonamide]
Ki (KAT8 Full length enzyme; [4]): > 6970 nM | Ki (KAT6A Full length enzyme; [5]): 4.6 nM | Ki [1]: 1.1 nM | Ki (KAT5 Full length enzyme; [6]): 1010 nM | Ki [2, 7]: 21.5 nM

CCOc1cccc(OC)c1S(=O)(=O)Nc1noc2cc(Nc3cc(C)[nH]n3)c(OC)cc12 [Example 99, 2-ethoxy-6-methoxy-N-{5-methoxy-6-[(5-methyl-1H-pyrazol-3-yl)amino]-1,2-benzoxazol-3-yl}benzene-1-sulfonamide]
Ki (KAT8 Full length enzyme; [4]): 4840 nM | Ki (KAT6A Full length enzyme; [5]): 0.5 nM | Ki [3, 8]: 5.5 nM | Ki (KAT5 Full length enzyme; [6]): 388 nM | Ki [2, 7]: 82.6 nM

COc1cc2c(NS(=O)(=O)c3c(OC)cccc3OC)noc2cc1Nc1cc(Cc2ccccc2)n[nH]1 [Example 109, N-{6-[(3-benzyl-1H-pyrazol-5-yl)amino]-5-methoxy-1,2-benzoxazol-3-yl}-2,6-dimethoxybenzene-1-sulfonamide]
Ki (KAT8 Full length enzyme; [4]): 2930 nM | Ki (KAT6A Full length enzyme; [5]): 0.8 nM | Ki [1]: 5 nM | Ki (KAT5 Full length enzyme; [6]): 326 nM | Ki [2, 7]: 18.5 nM

COc1cc2c(NS(=O)(=O)c3c(OC)cccc3OC)noc2cc1Nc1cc(CC(C)C)n[nH]1 [Example 114, 2,6-dimethoxy-N-(5-methoxy-6-{[3-(2-methylpropyl)-1H-pyrazol-5-yl]amino}-1,2-benzoxazol-3-yl)benzene-1-sulfonamide]
Ki (KAT8 Full length enzyme; [4]): 3360 nM | Ki (KAT6A Full length enzyme; [5]): 1.3 nM | Ki [1]: 2.1 nM | Ki (KAT5 Full length enzyme; [6]): 312 nM | Ki [2, 7]: 22 nM

COc1cc2c(NS(=O)(=O)c3c(OC)cc(-c4cscn4)cc3OC)noc2cc1Nc1cc(C2CC2)n[nH]1 [Example 121, N-{6-[(3-cyclopropyl-1H-pyrazol-5-yl)amino]-5-methoxy-1,2-benzoxazol-3-yl}-2,6-dimethoxy-4-(1,3-thiazol-4-yl)benzene-1-sulfonamide]
Ki (KAT8 Full length enzyme; [4]): 1120 nM | Ki (KAT6A Full length enzyme; [5]): 0.7 nM | Ki [1]: 2.1 nM | Ki (KAT5 Full length enzyme; [6]): 106 nM | Ki [2, 7]: 8.9 nM

COc1cc2c(NS(=O)(=O)c3c(OC)cc(-c4ccn(C)n4)cc3OC)noc2cc1Nc1cc(C2CC2)n[nH]1 [Example 122, N-{6-[(3-cyclopropyl-1H-pyrazol-5-yl)amino]-5-methoxy-1,2-benzoxazol-3-yl}-2,6-dimethoxy-4-(1-methyl-1H-pyrazol-3-yl)benzene-1-sulfonamide]
Ki (KAT8 Full length enzyme; [4]): 395 nM | Ki (KAT6A Full length enzyme; [5]): 0.3 nM | Ki [1]: 1.2 nM | Ki (KAT5 Full length enzyme; [6]): 45.3 nM | Ki [2, 7]: 3 nM

CCc1cc(Nc2cc3onc(NS(=O)(=O)c4ccc(C(=O)NCCCCCNC(=O)c5ccc(-c6nnc(C)nn6)cc5)cc4OC)c3cc2OC)[nH]n1 [Example 138, 4-({6-[(3-Ethyl-1 H-pyrazol-5-yl)amino]-5-methoxy-1,2-benzoxazol-3-yl}sulfamoyl)-3-methoxy-N-{5-[4-(6-methyl-1,2,4,5-tetrazin-3-yl)benzamido]pentyl}benzamide]
Ki (KAT8 Full length enzyme; [4]): > 13000 nM | Ki (KAT6A Full length enzyme; [5]): 1.2 nM | Ki [3, 8]: 5.6 nM | Ki (KAT5 Full length enzyme; [6]): 195 nM | Ki [2, 7]: 40.6 nM

COc1cc2c(NS(=O)(=O)c3c(OC)cc([C@H]4CCCN4C)cc3OC)noc2cc1Nc1cc(C2CC2)n[nH]1 [Example 188, N-{6-[(3-cyclopropyl-1 H-pyrazol-5-yl)amino]-5-methoxy-1,2-benzoxazol-3-yl}-2,6-dimethoxy-4-[(2R)-1-methylpyrrolidin-2-yl]benzene-1-sulfonamide]
Ki (KAT8 Full length enzyme; [4]): 3690 nM | Ki (KAT6A Full length enzyme; [5]): 2.5 nM | Ki [3, 8]: 2.9 nM | Ki (KAT5 Full length enzyme; [6]): 140 nM | Ki [2, 7]: 8.4 nM

COc1cc2c(NS(=O)(=O)c3c(OC)cc(CN4CC[C@@H](F)C4)cc3OC)noc2cc1Nc1cc(C2CC2)n[nH]1 [Example 201, N-{6-[(3-cyclopropyl-1H-pyrazol-5-yl)amino]-5-methoxy-1,2-benzoxazol-3-yl}-4-{[(3R)-3-fluoropyrrolidin-1-yl]methyl}-2,6-dimethoxybenzene-1-sulfonamide]
Ki (KAT8 Full length enzyme; [4]): 2190 nM | Ki (KAT6A Full length enzyme; [5]): 0.6 nM | Ki [1]: 3.4 nM | Ki (KAT5 Full length enzyme; [6]): 192 nM | Ki [2, 7]: 4.1 nM

COc1cc2c(NS(=O)(=O)c3c(OC)cc(CN4CC(F)(F)C4)cc3OC)noc2cc1Nc1cc(C2CC2)n[nH]1 [Example 203, N-{6-[(3-cyclopropyl-1H-pyrazol-5-yl)amino]-5-methoxy-1,2-benzoxazol-3-yl}-4-[(3,3-difluoroazetidin-1-yl)methyl]-2,6-dimethoxybenzene-1-sulfonamide]
Ki (KAT8 Full length enzyme; [4]): 1220 nM | Ki (KAT6A Full length enzyme; [5]): 0.4 nM | Ki [1]: 3 nM | Ki (KAT5 Full length enzyme; [6]): 21.7 nM | Ki [2, 7]: 4.3 nM

COc1cc2c(NS(=O)(=O)c3c(OC)cc(-c4ncc(C)cn4)cc3OC)noc2cc1Nc1cc(C2CC2)n[nH]1 [Example 213, N-{6-[(3-cyclopropyl-1H-pyrazol-5-yl)amino]-5-methoxy-1,2-benzoxazol-3-yl}-2,6-dimethoxy-4-(5-methylpyrimidin-2-yl)benzene-1-sulfonamide]
Ki (KAT8 Full length enzyme; [4]): 1570 nM | Ki (KAT6A Full length enzyme; [5]): 0.5 nM | Ki [1]: 1.7 nM | Ki [2, 7]: 3.9 nM

COc1cc2c(NS(=O)(=O)c3c(OC)cc(N4CC[C@@H](F)C4)cc3OC)noc2cc1Nc1cc(C2CC2)n[nH]1 [Example 249, N-{6-[(3-cyclopropyl-1H-pyrazol-5-yl)amino]-5-methoxy-1,2-benzoxazol-3-yl}-4-[(3R)-3-fluoropyrrolidin-1-yl]-2,6-dimethoxybenzene-1-sulfonamide]
Ki (KAT8 Full length enzyme; [9]): 104 nM | Ki (KAT6A Full length enzyme; [10]): 0.3 nM | Ki [3, 11]: 0.3 nM | Ki (KAT5 Full length enzyme; [12]): 8.7 nM | Ki [2, 13]: 1.7 nM

COc1cc2c(NS(=O)(=O)c3c(OC)cc(N4CCN(C)CC4)cc3OC)noc2cc1Nc1cc(C2CC2)n[nH]1 [Example 251, N-{6-[(3-cyclopropyl-1H-pyrazol-5-yl)amino]-5-methoxy-1,2-benzoxazol-3-yl}-2,6-dimethoxy-4-(4-methylpiperazin-1-yl)benzene-1-sulfonamide]
Ki (KAT8 Full length enzyme; [9]): 1150 nM | Ki (KAT6A Full length enzyme; [10]): 1 nM | Ki [3, 11]: 2.1 nM | Ki (KAT5 Full length enzyme; [12]): 67 nM | Ki [2, 13]: 6.2 nM

COc1cc2c(NS(=O)(=O)c3c(OC)cc(N4CCN(C)C(=O)C4)cc3OC)noc2cc1Nc1cc(C2CC2)n[nH]1 [Example 254, N-{6-[(3-cyclopropyl-1H-pyrazol-5-yl)amino]-5-methoxy-1,2-benzoxazol-3-yl}-2,6-dimethoxy-4-(4-methyl-3-oxopiperazin-1-yl)benzene-1-sulfonamide]
Ki (KAT8 Full length enzyme; [9]): 1260 nM | Ki (KAT6A Full length enzyme; [10]): 0.7 nM | Ki [3, 11]: 1.2 nM | Ki (KAT5 Full length enzyme; [12]): 54.5 nM | Ki [2, 13]: 6.6 nM
